# Ends that are not written are not given here.
# What was measured:
# [1] = tested on: Listeria monocytogenes (ATCC strain and field strains SS1-SS5)
# Method: The bactericidal activity of the Bac-amp1 and IDR-1018 peptides was evaluated against both Gram+ (Listeria monocytogenes and Staphylococcus aureus) and Gram− (Salmonella typhimurium) pathogenic bacteria.
# Standard deviations for triple incubations of each plate and EC50 evaluation were determined using GraphPad Prism version 6.00 (Graph-Pad Software, La Jolla Calif. USA)
# As regards Listeria monocytogenes, five field strains were added to the trial (wild strains) SS1 (serotype 4b), SS2 (serotype 4b), SS3 (serotype 4b), SS4 (serotype 4b), SS5 (serotype ½c) shown in Table 2. These strains were isolated from 200 samples of food waste, in particular fish products and milk derivatives, obtained from workbenches of food companies. All samples were collected in a context of official controls. Isolation of Listeria monocytogenes strains was performed according to the ISO-11290-1 standard. […]
# In all the investigated experimental conditions, the plate counting method was used to estimate the bactericidal activity of the peptides. Specifically, the number of colonies grown on plates with agar seeded with bacterial suspensions in the absence or in the presence of individual dilutions of peptides was counted and compared. The standard deviations of the triple incubations of each plate were determined using statistical software. […]
# [2] = tested on: S. thyphimurium (ATCC); format: cell-based, Salmonella typhimurium; settings: 6 h
# Method: The evaluation of the minimum bactericidal concentration (MBC) was carried out as described in Bilikova et al, (2015, Peptides 68:190-196) and the evaluation of the effective concentration to reduce 50% of the bacterial population (EC50) of the two peptides was carried out with the micro-dilutions of the broth as described in Wang H X and Ng T B (2003, Peptides 24:969-972). Standard deviations for triple incubations of each plate and EC50 evaluation were determined using GraphPad Prism version 6.00 (Graph-Pad Software, La Jolla Calif. USA) Salmonella typhimurium A control stock suspension was prepared in which 10^3 CFU of S. typhimurium (ATCC13311 strain) were inoculated in 10 ml of BPW (Oxoid, Basingstoke, UK). […] Each dilution series included control plates inoculated with DMSO without the peptide and control plates with bacteria alone. In all the investigated experimental conditions, the plate counting method was used to estimate the bactericidal activity of the peptides. Specifically, the number of colonies grown on plates with agar seeded with bacterial suspensions in the absence or in the presence of individual dilutions of peptides was counted and compared. The standard deviations of the triple incubations of each plate were determined using statistical software. […]
# [3] = tested on: L. monocytogenes biofilms; assay: Antibiofilm activity assay with SEM on steel discs; format: cell-based, Listeria monocytogenes
# Method: The activity of the Bac-amp1 and IDR-1018 peptides on L. monocytogenes biofilms was further investigated by scanning electron microscopy (SEM).
# Specifically, in this example the three-dimensional biofilm architecture, developed on stainless steel materials, was studied.
# The Aisi 304 stainless steel discs with a diameter of 14.5 mm (SS) were treated with 600 μl of standardized inoculum in the presence or absence of each of the peptides at the concentration of 25 μM or 50 μM, or with control medium, according to the same method of Example 4a and repeatedly washed in sterile PBS to remove planktonic cells and fixated on a new plate with 1 ml of Karnovsky fixative containing 5% glutaraldehyde, 4% paraformaldehyde in buffer 0.064 M (Electronic Microscopy Science, Hatfield, Pa., USA) for 1 hour at 4° C. Thereafter, the samples were washed in 0.1 M cacodylate sodium buffer at pH 7.4 (Electronic Microscopy Science, Hatfield, Pa., USA) and the fixated cells were dehydrated in a series of aqueous acetone solutions at different concentrations, in particular 25%, 50%, 75% and 100%. The samples were glued onto polished aluminium sample holders (Electronic Microscopy Science, Hatfield, Pa., USA) and uniformly vacuum coated with a 20-nm thick gold layer with the K950 high-vacuum Turbo Evaporator and a K 350 coupling (Emitech Ltd, Ashford, UK). The coated samples were examined at the JEOL 6700 FEG Field Emission Electron Microscope (SEM Jeol, City and State) with magnification from 1000× to 5000×. For each sample, a number of images (5-10), acquired as electronic images were randomly analyzed.
substance,measurement,setting,value
"VRLIVKVRIWRR-NH2 [Bac-amp1, VRLIVKVRIWRR-NH2]","MIC, bactericidal activity against Listeria monocytogenes",[1]; ATCC strain and field strains SS1-SS5,below 10 μM
same,EC50,"[1]; ATCC strain and field strains SS1-SS5, 6 h",550 nM
same,EC50,[2],2830 nM
same,biofilm formation by SEM,[3]; 25 μM,significantly reduces the formation of biofilm
same,"cells on steel discs by SEM, 5000× image",[3]; 50 μM,near absence of cells
